Laboratory results: ChEMBL document CHEMBL4346712, “Research progress in the biological activities of 3,4,5-trimethoxycinnamic acid (TMCA) derivatives” (Eur J Med Chem, 2019)
Converted amounts (≈) assume the structure as drawn.

How the values were obtained:
[1] = Growth inhibition of HUVEC at 5 uM relative to control; format: cell-based; details: human, HUVEC cells; read-out: GI
[2] = tested on: CPAE; assay: Cytotoxic activity against cow CPAE cells by MTT assay; details: Bos taurus
[3] = tested on: EL4; assay: Antitumor activity against mouse EL4 cells by MTT assay
[4] = target: T1, Bifunctional epoxide hydrolase 2 (Homo sapiens, UniProt P34913); assay: Competitive inhibition of soluble epoxide hydrolase (unknown origin)
T1 sequence (P34913 whole entry): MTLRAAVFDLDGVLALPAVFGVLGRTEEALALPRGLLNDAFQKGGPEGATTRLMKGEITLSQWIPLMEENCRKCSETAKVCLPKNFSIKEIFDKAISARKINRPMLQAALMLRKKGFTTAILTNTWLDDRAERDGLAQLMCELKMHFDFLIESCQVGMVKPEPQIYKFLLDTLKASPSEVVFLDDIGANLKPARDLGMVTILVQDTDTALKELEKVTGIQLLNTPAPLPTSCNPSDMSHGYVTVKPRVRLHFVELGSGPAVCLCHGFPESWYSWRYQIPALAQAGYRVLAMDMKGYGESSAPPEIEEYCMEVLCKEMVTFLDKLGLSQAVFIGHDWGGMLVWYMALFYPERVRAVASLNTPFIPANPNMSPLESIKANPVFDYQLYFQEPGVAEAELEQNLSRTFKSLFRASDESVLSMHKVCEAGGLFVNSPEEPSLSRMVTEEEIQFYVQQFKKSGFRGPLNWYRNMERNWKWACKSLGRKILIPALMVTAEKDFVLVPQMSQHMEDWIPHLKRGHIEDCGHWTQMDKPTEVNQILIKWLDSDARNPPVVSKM

[5] = target: T2, Bifunctional epoxide hydrolase 2 (Homo sapiens) (UniProt P34913); assay: Competitive inhibition of soluble epoxide hydrolase (unknown origin) at 100 uM relative to control
T2 sequence (whole entry): T1 sequence (P34913 whole entry)

[6] = target: High mobility group protein B1 (Homo sapiens) (UniProt P09429); assay: Inhibition of HMGB1 (unknown origin) at 10 uM by ELISA relative to control
High mobility group protein B1 (Homo sapiens), sequence (P09429 whole entry): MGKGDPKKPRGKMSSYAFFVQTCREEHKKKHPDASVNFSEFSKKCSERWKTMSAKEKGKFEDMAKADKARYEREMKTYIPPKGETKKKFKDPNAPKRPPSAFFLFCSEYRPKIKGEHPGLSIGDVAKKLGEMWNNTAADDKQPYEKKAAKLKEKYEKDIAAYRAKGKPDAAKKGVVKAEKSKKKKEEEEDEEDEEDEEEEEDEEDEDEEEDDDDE

[7] = species on record: Mus musculus; assay: Inhibition of HMGB1 in mouse model relative to control; format: functional
[8] = tested on: Platelet; assay: Antiplatelet activity in rabbit platelet rich plasma assessed as inhibition of ADP-induced platelet aggregation at 30 ug/ml relative to control; format: functional; details: Oryctolagus cuniculus
[9] = target: Platelet-activating factor receptor (Homo sapiens) (UniProt P25105); assay: Inhibition of PAF receptor (unknown origin) assessed as reduction in receptor to rabbit platelet binding at 20 ug/ml relative to control
Platelet-activating factor receptor (Homo sapiens), sequence (P25105 whole entry): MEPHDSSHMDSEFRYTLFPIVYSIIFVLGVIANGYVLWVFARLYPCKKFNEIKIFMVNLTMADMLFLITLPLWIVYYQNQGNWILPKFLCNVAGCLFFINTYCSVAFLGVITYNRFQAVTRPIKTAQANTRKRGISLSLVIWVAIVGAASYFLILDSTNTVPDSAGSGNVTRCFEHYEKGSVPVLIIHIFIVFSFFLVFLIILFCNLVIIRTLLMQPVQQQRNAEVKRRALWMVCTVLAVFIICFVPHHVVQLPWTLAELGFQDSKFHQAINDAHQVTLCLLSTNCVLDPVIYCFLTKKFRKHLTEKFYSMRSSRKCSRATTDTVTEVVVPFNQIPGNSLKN

[10] = tested on: Platelet; assay: Antiplatelet activity in rabbit platelet rich plasma assessed as inhibition of PAF-induced platelet aggregation at 50 ug/ml relative to control; format: functional; details: Oryctolagus cuniculus
[11] = tested on: Platelet; assay: Antiplatelet activity in rabbit platelet rich plasma assessed as inhibition of PAF-induced platelet aggregation at 150 uM preincubated for 3 mins followed by PAF addition measured after 10 mins relative to control; format: functional; details: Oryctolagus cuniculus
[12] = tested on: Platelet; assay: Antiplatelet activity in rabbit platelet rich plasma assessed as inhibition of collagen-induced platelet aggregation at 300 uM preincubated for 3 mins followed by collagen addition measured after 10 mins relative to control; format: functional; details: Oryctolagus cuniculus
[13] = tested on: Platelet; assay: Antiplatelet activity in rabbit platelet rich plasma assessed as inhibition of PAF-induced platelet aggregation at 300 uM preincubated for 3 mins followed by PAF addition measured after 10 mins relative to control; format: functional; details: Oryctolagus cuniculus
[14] = tested on: Platelet; assay: Antiplatelet activity in rabbit platelet rich plasma assessed as inhibition of arachidonic acid-induced platelet aggregation at 150 uM preincubated for 3 mins followed by arachidonic acid addition measured after 10 mins relative to control; format: functional; details: Oryctolagus cuniculus
[15] = tested on: Platelet; assay: Antiplatelet activity in rabbit platelet rich plasma assessed as inhibition of arachidonic acid-induced platelet aggregation at 300 uM preincubated for 3 mins followed by arachidonic acid addition measured after 10 mins relative to control; format: functional; details: Oryctolagus cuniculus
[16] = tested on: Platelet; assay: Antiplatelet activity in rabbit platelet rich plasma assessed as inhibition of collagen-induced platelet aggregation at 150 uM preincubated for 3 mins followed by collagen addition measured after 10 mins relative to control; format: functional; details: Oryctolagus cuniculus
[17] = Antioxidant activity assessed as DPPH radical scavenging activity at 50 ug/ml relative to control; format: functional
[18] = Growth inhibition of HUVEC; format: cell-based; details: human, HUVEC cells
[19] = target: Sodium-dependent serotonin transporter (Homo sapiens, UniProt P31645); assay: Displacement of [3H]Imipramine from human 5-HT transporter expressed in HEK-293 cell membranes after 30 mins
Sodium-dependent serotonin transporter, sequence (P31645 whole entry): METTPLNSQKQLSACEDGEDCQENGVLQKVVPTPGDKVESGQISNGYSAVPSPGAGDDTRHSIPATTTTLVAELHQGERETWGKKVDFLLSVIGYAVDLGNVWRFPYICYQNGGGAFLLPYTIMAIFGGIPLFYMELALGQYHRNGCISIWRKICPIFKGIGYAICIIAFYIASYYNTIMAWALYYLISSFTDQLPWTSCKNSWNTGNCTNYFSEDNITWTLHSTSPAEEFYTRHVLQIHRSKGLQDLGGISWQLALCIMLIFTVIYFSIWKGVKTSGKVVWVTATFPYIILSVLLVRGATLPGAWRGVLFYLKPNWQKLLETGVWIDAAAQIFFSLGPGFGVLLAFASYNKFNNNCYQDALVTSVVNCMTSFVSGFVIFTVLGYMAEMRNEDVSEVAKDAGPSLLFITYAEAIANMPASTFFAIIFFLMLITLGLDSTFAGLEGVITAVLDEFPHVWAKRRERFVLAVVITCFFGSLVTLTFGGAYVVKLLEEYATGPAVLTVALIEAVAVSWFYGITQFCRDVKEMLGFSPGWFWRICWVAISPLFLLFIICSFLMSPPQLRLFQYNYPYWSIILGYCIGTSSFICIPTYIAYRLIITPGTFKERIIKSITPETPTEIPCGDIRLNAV

Q: With COc1cc(/C=C/C(=O)Nc2ccc(NC(=O)[C@@H](O)[C@H](N)Cc3ccccc3)cc2)cc(OC)c1OC as the compound, how does the inhibition at 5 µM [1] read?
A: 93%

Q: With COc1cc(/C=C/C(=O)O[C@@H]2CC[C@]3(CO3)[C@@H]([C@@]3(C)O[C@@H]3CC=C(C)C)[C@@H]2OC)cc(OC)c1OC as the compound, how does the IC50 [2] read?
A: 0.03 µg/mL (≈ 0.0597 µM)

Q: What about the IC50 [3] of the same compound?
A: 0.15 µg/mL (≈ 0.298 µM)

Q: For COc1cc(/C=C/C(=O)O[C@H]2[C@H](O)[C@@H](CO)O[C@]2(CO)O[C@H]2O[C@H](CO)[C@@H](OC(=O)c3ccccc3)[C@H](O)[C@H]2O)cc(OC)c1OC, which IC50 [4] is on record?
A: 18 µM

Q: What about the inhibition [5] of the same compound?
A: > 100%

Q: For COc1cc(/C=C/C(=O)Oc2ccc3[nH]c4ccccc4c3c2)cc(OC)c1OC, which inhibition [6] is on record?
A: 70.2%

Q: What about the “inhibition (INH)” value [7] of the same compound?
A: 58.9%

Q: With COc1cc(/C=C/C(=O)NCCc2ccc(O)cc2)cc(OC)c1OC as the compound, how does the inhibition at 30 µg/mL [8] read?
A: 24.4%

Q: And the inhibition [9]?
A: 12%

Q: And the inhibition at 50 µg/mL [10]?
A: 28.8%

Q: With COc1cc(/C=C/C(=O)OC[C@H]2O[C@H](O[C@@]3(CO)O[C@H](CO)[C@@H](O)[C@@H]3OC(=O)/C=C/c3cc(OC)c(OC)c(OC)c3)[C@H](O)[C@@H](O)[C@@H]2O)cc(OC)c1O as the compound, how does the IC50 [4] read?
A: 27.2 µM

Q: What about the inhibition [5] of the same compound?
A: 97.4%

Q: With COc1cc(/C=C/C(=O)N2CC(C)CC(C)C2)cc(OC)c1OC (stereo unspecified) as the compound, how does the inhibition at 150 µM [11] read?
A: 56.9%

Q: And the inhibition at 300 µM [12]?
A: 98.6%

Q: And the inhibition at 300 µM [13]?
A: 94.8%

Q: And the inhibition at 150 µM [14]?
A: 100%

Q: What about the inhibition at 300 µM [15] of the same compound?
A: 100%

Q: What about the inhibition at 150 µM [16] of the same compound?
A: 97.2%

Q: With COc1ccc(/C=C/COC(=O)/C=C/c2cc(OC)c(OC)c(OC)c2)cc1 as the compound, how does the inhibition [17] read?
A: 18.6%

Q: For COc1cc(/C=C/C(=O)O[C@H]2[C@H](O)[C@@H](CO)O[C@@]2(CO)O[C@H]2O[C@H](COC(=O)c3ccc(O)cc3)[C@@H](O)[C@H](O)[C@H]2O)cc(OC)c1OC, which IC50 [4] is on record?
A: 9.1 µM

Q: What about the inhibition [5] of the same compound?
A: > 100%

Q: Which inhibition at 5 µM [1] does the source give for COc1cc(/C=C/C(=O)Nc2ccc(NC(=O)[C@@H](O)[C@H](N)CC3CCCCC3)cc2)cc(OC)c1OC here?
A: > 98%

Q: What about the GI50 [18] of the same compound?
A: 0.67 µM

Q: Which IC50 [19] does the source give for COc1cc(/C=C/C(=O)O)cc(OC)c1OC [SINAPIC ACID METHYL ETHER] here?
A: > 10 µM

Q: What does the source list for COc1cc(/C=C/C(=O)Nc2ccc(NC(=O)[C@@H](O)[C@H](N)CCc3ccccc3)cc2)cc(OC)c1OC?
A: inhibition at 5 µM [1]: > 98%; GI50 [18]: 0.85 µM
